Assay results as given in EP1036783B1 (MERCK & CO. INC., priority 1999, dated 2000).

Columns and labels:
HMG-CoA reductase [1] = conditions: human, in vivo
clinical = conditions: human, in vivo
HMG-CoA reductase [2] = conditions: following intraduodenal administration of dihydroxy open acid simvastatin

Cmax, Active Inhibitors (HMG-CoA reductase [1]): 5.7 = 3.0 ng eq/mL
Tmax, Active HMG-CoA reductase inhibitors (HMG-CoA reductase [1]): 3.6 (2.5) hr
change by itraconazole pre-treatment in AUC and Cmax of HMG-CoA reductase inhibitory activity (total or active) (HMG-CoA reductase [1]): 1.3-1.5 fold
effect of itraconazole measured as the unchanged drug (clinical): 1.5 fold
Tmax (clinical; SVA in plasma): 4.1 h
Tmax (clinical; Simyastatin Acid in plasma): 4.1 ± 2.1 h
half-life (clinical; t1/2, SV in plasma): 6.7 h
half-life (clinical; t1/2, SVA in plasma): 2.3 h
half-life (clinical; t1/2, Simyastatin Acid in plasma): 2.3 ± 0.5 h
lactonization of dihydroxy open acid simvastatin or its active metabolites (HMG-CoA reductase [2]): occurred minimally
Structure (SMILES): CCC(C)(C)C(=O)O[C@H]1C[C@@H](C)C=C2C=C[C@H](C)[C@H](CC[C@@H](O)C[C@@H](O)CC(=O)O)[C@H]21 [SVA, dihydroxy open acid simvastatin]
